Data published in ChEMBL document CHEMBL4706547, “Discovery and structure-activity relationship studies of 1-aryl-1H-naphtho[2,3-d][1,2,3]triazole-4,9-dione derivatives as potent dual inhibitors of indoleamine 2,3-dioxygenase 1 (IDO1) and trytophan 2,3-dioxygenase (TDO)” (Eur J Med Chem, 2020).
Values after ≈ are worked out from the molar mass of the structure shown. Active and inactive are the calls of the source. The calls are words filed in the database; no cut-off is given here.

Tests used:
[1] = molecular target: T1, Tryptophan 2,3-dioxygenase (Homo sapiens, UniProt P48775); test: Inhibition of TDO (unknown origin) assessed as reduction in L-kynurenine formation using L-tryptophan as substrate incubated for 30 mins microplate spectrophotometry analysis
[2] = molecular target: T2, Indoleamine 2,3-dioxygenase 1 (Homo sapiens, UniProt P14902)
[3] = tested on: LL2; conditions: dose 30.0 mg/kg, time day <=20
[4] = Antitumor activity against […] cells allografted in C57BL/6 mouse assessed as tumor growth inhibition at 30 mg/kg, ip administered for 11 days and measured upto 20 days relative to control; assay type: functional; conditions: Hepa1-6, ip, time day <=20, read-out: TGI
[5] = molecular target: T1, Tryptophan 2,3-dioxygenase; test: Inhibition of TDO in human A 172 cells assessed as reduction in L-kynurenine formation using L-tryptophan as substrate incubated for 24 hrs; assay type: cell-based
[6] = Redox activity of compound assessed as increase in H2O2 production at > 50 uM incubated for 15 mins by HRP-PR staining based fluorometric analysis relative to control; assay type: physicochemical; conditions: 0.25 h
[7] = Toxicity in C57BL/6 mouse […] with […] cells assessed as effect on body weight at 30 mg/kg, ip administered for 11 days and measured upto 20 days; assay type: organism-based; conditions: in vivo, time <=20 day
[8] = Redox activity of compound assessed as increase in H2O2 production incubated for 15 mins by HRP-PR staining based fluorometric analysis; assay type: physicochemical; conditions: 0.25 h
[9] = molecular target: T2, Indoleamine 2,3-dioxygenase 1; test: Inhibition of IDO1 in IFN-gamma-induced human HeLa cells assessed as reduction in L-kynurenine formation using L-tryptophan as substrate incubated for 24 hrs
[10] = Solubility of compound; assay type: physicochemical
[11] = Antitumor activity against […] cells allografted in C57BL/6 mouse assessed as tumor growth inhibition at 30 mg/kg, ip administered for 11 days and measured upto 20 days relative to control; assay type: functional; conditions: LL/2, ip, time day <=20, read-out: TGI
[12] = Toxicity in C57BL/6 mouse […] with […] cells assessed as effect on body weight at 30 mg/kg, ip administered for 11 days and measured upto 20 days; assay type: organism-based; conditions: in vivo, time <=20 day

T2 sequence (P14902 whole entry): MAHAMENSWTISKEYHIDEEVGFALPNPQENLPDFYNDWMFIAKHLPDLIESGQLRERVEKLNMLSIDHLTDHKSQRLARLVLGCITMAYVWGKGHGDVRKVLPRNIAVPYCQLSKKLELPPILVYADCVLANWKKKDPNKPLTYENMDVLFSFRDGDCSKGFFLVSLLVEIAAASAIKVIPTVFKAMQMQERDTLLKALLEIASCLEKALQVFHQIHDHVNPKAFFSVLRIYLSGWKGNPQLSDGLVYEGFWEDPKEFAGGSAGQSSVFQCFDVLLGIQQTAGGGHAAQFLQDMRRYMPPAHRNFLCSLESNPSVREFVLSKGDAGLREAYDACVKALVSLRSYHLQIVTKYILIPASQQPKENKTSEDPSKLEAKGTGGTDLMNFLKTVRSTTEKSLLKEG
T1 sequence (P48775 whole entry): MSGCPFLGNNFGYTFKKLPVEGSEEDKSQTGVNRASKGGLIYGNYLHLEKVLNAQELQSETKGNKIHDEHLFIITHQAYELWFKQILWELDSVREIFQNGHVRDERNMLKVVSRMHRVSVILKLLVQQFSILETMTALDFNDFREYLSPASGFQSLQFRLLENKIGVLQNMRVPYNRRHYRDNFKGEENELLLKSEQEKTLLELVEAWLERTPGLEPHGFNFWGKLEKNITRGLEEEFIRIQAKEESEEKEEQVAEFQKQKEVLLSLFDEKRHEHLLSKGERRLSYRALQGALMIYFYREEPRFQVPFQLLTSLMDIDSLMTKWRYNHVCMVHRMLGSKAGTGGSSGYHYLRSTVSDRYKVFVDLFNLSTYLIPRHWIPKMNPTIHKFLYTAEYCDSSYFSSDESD

| Structure (SMILES) | IC50 [1] [µM] | IC50 [2] [µM] | other results |
| --- | --- | --- | --- |
| O=C1c2ccccc2C(=O)c2c1nnn2-c1ccc2ccncc2c1 | 0.034 | 0.04 | – |
| COC(=O)c1ccc(-n2nnc3c2C(=O)c2ccccc2C3=O)cc1 | 0.058 | 0.034 | – |
| O=C1c2ccccc2C(=O)c2c1nnn2Cc1ccccc1 | 0.858 | 0.886 | – |
| O=C1c2ccccc2C(=O)c2c1nnn2-c1ccc(F)cc1 | 0.049 | 0.058 | – |
| O=C1c2ccccc2C(=O)c2c1nnn2-c1ccc2[nH]ncc2c1 | 0.042 | 0.045 | – |
| NS(=O)(=O)NCCNc1nonc1/C(=N/O)Nc1ccc(F)c(Br)c1 [EPACADOSTAT] | – | – | TGI [3]: Active; inhibition in vivo at 30 mg/kg [4]: 50% |
| O=C(O)c1cccc(-n2nnc3c2C(=O)c2ccccc2C3=O)c1 | 0.071 | 0.114 | – |
| CC(=O)Nc1cccc(-n2nnc3c2C(=O)c2ccccc2C3=O)c1 | 0.132 | 0.081 | – |
| O=C1c2ccccc2C(=O)c2c1nnn2-c1ccccc1 | 0.07 | 0.1 | – |
| O=C1c2ccccc2C(=O)c2c1nnn2-c1ccc2[nH]cnc2c1 | 0.104 | 0.078 | – |
| O=C1c2ccccc2C(=O)c2c1nnn2-c1ccc(-c2nnn[nH]2)cc1 | 0.025 | 0.06 | – |
| CN1CCN(c2ccc(-n3nnc4c3C(=O)c3ccccc3C4=O)cc2)CC1 | > 10 | > 10 | – |
| O=C1c2ccccc2C(=O)c2c1nnn2-c1ccc([N+](=O)[O-])cc1 | 0.048 | 0.033 | – |
| NS(=O)(=O)NCCNc1nonc1C(=NO)Nc1ccc(F)c(Br)c1 [EPACADOSTAT] | > 10 | – | – |
| N#Cc1ccc(-n2nnc3c2C(=O)c2ccccc2C3=O)cc1 | 0.066 | 0.026 | – |
| NS(=O)(=O)c1ccc(-n2nnc3c2C(=O)c2ccccc2C3=O)cc1 | 0.048 | 0.03 | – |
| O=C1c2ccccc2C(=O)c2c1nnn2-c1cccnc1 | 0.021 | 0.023 | – |
| Cc1cccc(-n2nnc3c2C(=O)c2ccccc2C3=O)c1 | 0.064 | 0.122 | – |
| O=C1c2ccccc2C(=O)c2c1nnn2-c1ccc(Cl)nc1 | 0.025 | 0.027 | – |
| CN1CCN(C(=O)c2cccc(Cn3nnc4c3C(=O)c3ccccc3C4=O)c2)CC1 | – | 0.658 | – |
| O=C1c2ccccc2C(=O)c2c1nnn2-c1ccccc1Cl | > 10 | > 10 | – |
| O=C1c2ccccc2C(=O)c2c1nnn2-c1cccc([N+](=O)[O-])c1 | 0.028 | 0.029 | – |

Now from value to molecule, other results behind:

| IC50 [1] [µM] | IC50 [2] [µM] | Structure (SMILES) | other results |
| --- | --- | --- | --- |
| 0.025 | 0.03 | O=C1c2ccccc2C(=O)c2c1nnn2-c1ccc(C(F)(F)F)c(Cl)c1 | – |
| 0.014 | 0.013 | O=C1c2ccccc2C(=O)c2c1nnn2-c1ccc(F)c(Cl)c1 | – |
| 0.015 | 0.023 | O=C1c2ccccc2C(=O)c2c1nnn2-c1ccc(Cl)cc1 | – |
| 0.018 | 0.023 | O=C1c2ccccc2C(=O)c2c1nnn2-c1ccc(Cl)c(Cl)c1 | – |
| 0.384 | 0.355 | O=C1c2ccc(O)cc2C(=O)c2c1nnn2-c1ccc(F)c(Cl)c1 | – |
| 0.171 | 0.144 | O=C1c2cc(O)ccc2C(=O)c2c1nnn2-c1ccc(F)c(Cl)c1 | – |
| 0.105 | 0.163 | COc1ccc2c(c1)C(=O)c1nnn(-c3ccc(F)c(Cl)c3)c1C2=O | – |
| 0.248 | 0.113 | O=C1c2ccccc2C(=O)c2c1nnn2-c1cnc(Cl)c(Cl)c1 | – |
| > 10 | > 10 | COc1ccc2c(c1)C(=O)c1c(nnn1-c1ccc(F)c(Cl)c1)C2=O | – |
| 0.036 | 0.04 | O=C1c2ccccc2C(=O)c2c1nnn2-c1cccc(Cl)c1 | – |
| 0.018 | 0.02 | O=C1c2ccccc2C(=O)c2c1nnn2-c1ccc(Cl)c(F)c1 | – |
| 0.015 | 0.015 | O=C1c2ccccc2C(=O)c2c1nnn2-c1ccc(Cl)c([N+](=O)[O-])c1 | – |
| 0.034 | 0.033 | O=C1c2ccccc2C(=O)c2c1nnn2-c1cc(Cl)c(F)c(Cl)c1 | – |
| 0.01 | 0.01 | O=C1c2ccc(F)cc2C(=O)c2c1nnn2-c1ccc(F)c(Cl)c1 | – |
| 0.101 | 0.052 | O=C1c2ccccc2C(=O)c2c1nnn2-c1cccc(F)c1 | – |
| 0.004 | 0.005 | O=C1c2cc(F)ccc2C(=O)c2c1nnn2-c1ccc(F)c(Cl)c1 | IC50 [5]: 0.059 µM; Activity [6]: Not Active; Activity [7]: Non-Toxic; Activity [8]: Not Active; IC50 [9]: 0.098 µM; solubility [10]: 0.16 µM (≈ 0.0553 µg/mL); inhibition in vivo at 30 mg/kg [4]: 80%; inhibition in vivo at 30 mg/kg [11]: 62.5%; Activity [12]: Non-Toxic |
